Assay results as given in patent US5102786A, “Biological diagnostic assay system” (PB Diagnostic Systems, Inc., priority 1987, dated 1992).

Assays:
[1] = biological target: Human Serum Albumin (HSA) (Homo sapiens, UniProt P02768); experiment: Displacement of sulforhodamine 101 from human serum albumin (Centricon 30 filtration, absorbance 586 nm); type: binding
Description: Two sets of aqueous solutions, 1.05×10^-5 M in sulforhodamine 101, were prepared in HEPES buffer with varying amounts of HSA.

plasma proteins [2] = biological target: T1, plasma proteins (Homo sapiens, UniProt P02768); experiment: in vitro; type: binding
T1 construct: Experiments were conducted with a set of plasma solutions in HEPES buffer; from tissue; host or cells: plasma
Description: Experiments were conducted with a set of plasma solutions in HEPES buffer containing ^14 C-labeled phenytoin (9.3×10^-5 M) and varying amounts of PNS.

HSA [3] = biological target: T2, HSA (Homo sapiens, UniProt P02768); experiment: Displacement of fluorescein from HSA (Centricon 30 filtration, 490 nm)
Description: (§1) Experiments were carried out with fluorescein and a fluorescein-theophylline conjugate, respectively, dissolved in HEPES buffer and containing various amounts of HSA. […] The solutions were centrifuged through a Centricon 30 filter at 5000 g and the filtrates were scanned at 490 nm.

[4] = Displacement of phenobarbital from plasma protein (filtration through Centricon PM 10, scintillation counting); settings: human, plasma
plasma proteins [5] = experiment: Displacement of a theophylline-rhodamine conjugate from plasma proteins (Centricon 30 filtration, 500-600 nm); type: binding, human
Description: The solutions were centrifuged through a Centricon 30 filter at 5000 g and the filtrates were scanned on a Perkin Elmer λ9 Spectrophotometer at 500-600 nm.

B-phycoerythrin = experiment: Fluorescent emission of B-phycoerythrin as a function of PNS and ANS; settings: for effect on fluorescence emission of B-phycoerythrin in solution (in words): 0.125-0.50% agent
Description: (§2) The fluorescent emissions of B- and R-phycoerythrin were studied as a function of PNS and 8-anilino-1-naphthalene sulfonic acid (ANS). The experiments were conducted with solutions of the phycoerythrin (1.7×10^-10 M) in HEPES buffer containing varying amounts of PNS and ANS. The phycoerythrins were excited at 560 nm and their emissions measured at 575 nm.

HSA [6] = biological target: T2, HSA; experiment: Displacement of a fluorescein-theophylline conjugate from HSA (Centricon 30 filtration, 490 nm); type: binding; set-up: CONJUGATE (free conjugate in filtrate): unit not given here; settings: 0.2% PNS
Description: as §1

R-phycoerythrin = experiment: Fluorescent emission of R-phycoerythrin as a function of PNS and ANS; settings: for effect on fluorescence emission of R-phycoerythrin in solution (in words): 0.125-0.50% agent
Description: as §2

[7] = Solubility of PNS in water; type: physicochemical
plasma proteins [8] = experiment: Displacement of phenobarbital from plasma protein (filtration through Centricon PM 10, scintillation counting)
[9] = 0.125% PNS or ANS, excited at 560 nm, emission 575 nm, HEPES buffer

Sequence of Human Serum Albumin (HSA) (P02768 25-609): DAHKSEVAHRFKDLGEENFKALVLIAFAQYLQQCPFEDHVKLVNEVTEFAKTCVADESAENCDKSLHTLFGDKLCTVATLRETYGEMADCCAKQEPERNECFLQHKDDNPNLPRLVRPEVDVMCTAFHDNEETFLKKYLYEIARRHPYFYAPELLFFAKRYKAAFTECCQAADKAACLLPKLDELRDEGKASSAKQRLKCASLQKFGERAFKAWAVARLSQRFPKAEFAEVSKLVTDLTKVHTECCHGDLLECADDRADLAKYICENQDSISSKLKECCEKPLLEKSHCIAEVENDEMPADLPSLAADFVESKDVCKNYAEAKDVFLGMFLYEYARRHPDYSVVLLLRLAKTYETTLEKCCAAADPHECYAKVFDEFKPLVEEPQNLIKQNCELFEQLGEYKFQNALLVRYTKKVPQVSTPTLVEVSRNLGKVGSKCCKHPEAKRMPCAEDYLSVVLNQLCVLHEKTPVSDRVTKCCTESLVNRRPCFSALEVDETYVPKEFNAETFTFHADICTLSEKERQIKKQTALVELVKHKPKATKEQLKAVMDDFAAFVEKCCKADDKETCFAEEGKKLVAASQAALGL
T2 sequence (P02768 25-609): as above
T1 sequence (P02768 25-609): as above

## O=S(=O)([O-])c1cc(S(=O)(=O)O)ccc1C1=c2cc3c4c(c2Oc2c1cc1c5c2CCCN5CCC1)CCC[N+]=4CCC3 [sulforhodamine 101, reference compound]
[1]; CONTROL (no PNS), 0% HSA, HEPES buffer, 10.5 µM
  % SULFORHODAMINE 101 (PASSED THROUGH FILTER): 100%
[1]; CONTROL (no PNS), 0.032% HSA, 10.5 µM
  % SULFORHODAMINE 101 (PASSED THROUGH FILTER): 83%
[1]; CONTROL (no PNS), 0.064% HSA, 10.5 µM
  % SULFORHODAMINE 101 (PASSED THROUGH FILTER): 50%
[1]; CONTROL (no PNS), 0.13% HSA, 10.5 µM
  % SULFORHODAMINE 101 (PASSED THROUGH FILTER): 32%
[1]; CONTROL (no PNS), 0.16% HSA, 10.5 µM
  % SULFORHODAMINE 101 (PASSED THROUGH FILTER): 23%
[1]; CONTROL (no PNS), 0.32% HSA, 10.5 µM
  % SULFORHODAMINE 101 (PASSED THROUGH FILTER): 10%
[1]; CONTROL (no PNS), 0.48% HSA, 10.5 µM
  % SULFORHODAMINE 101 (PASSED THROUGH FILTER): 6%

## O=C1NC(=O)C(c2ccccc2)(c2ccccc2)N1 [phenytoin, reference compound]
Plasma proteins [2]; plasma
  fraction unbound at 93 µM: 0.119

## O=C1OC2(c3ccc(O)cc3Oc3cc(O)ccc32)c2ccccc21 [fluorescein, reference compound]
HSA [3]; CONTROL (no PNS), 0% HSA, HEPES buffer
  DYE (free dye in filtrate): 100
HSA [3]; CONTROL (no PNS), 0.075% HSA
  DYE (free dye in filtrate): 83
HSA [3]; CONTROL (no PNS), 0.15% HSA
  DYE (free dye in filtrate): 69
HSA [3]; CONTROL (no PNS), 0.3% HSA
  DYE (free dye in filtrate): 52
HSA [3]; CONTROL (no PNS), 0.5% HSA
  DYE (free dye in filtrate): 40
HSA [3]; CONTROL (no PNS), 0.6% HSA
  DYE (free dye in filtrate): 35
HSA [3]; CONTROL (no PNS), 1.0% HSA
  DYE (free dye in filtrate): 24
HSA [3]; CONTROL (no PNS), 1.2% HSA
  DYE (free dye in filtrate): 20
HSA [3]; CONTROL (no PNS), 1.5% HSA
  DYE (free dye in filtrate): 17

## CCC1(c2ccccc2)C(=O)NC(=O)NC1=O [phenobarbital, reference compound]
[4]
  fraction unbound: ~0.55
  fraction unbound at 1 h: 0.555

## O=S(=O)(O)c1cccc2cccc(Oc3ccccc3)c12 [PNS, 1-phenoxynaphthalene-8-sulfonic acid]
Plasma proteins [5]; 0.2% PNS, 0% plasma
  % CONJUGATE (free conjugate in the filtrate): 100%
Plasma proteins [5]; 0.2% PNS, 20% plasma
  % CONJUGATE (free conjugate in the filtrate): 94%
Plasma proteins [5]; 0.2% PNS, 40% plasma
  % CONJUGATE (free conjugate in the filtrate): 88%
Plasma proteins [5]; 0.2% PNS, 60% plasma
  % CONJUGATE (free conjugate in the filtrate): 87%
Plasma proteins [5]; 0.2% PNS, 75% plasma
  % CONJUGATE (free conjugate in the filtrate): 89%
Plasma proteins [5]; 0.2% PNS, 90% plasma
  % CONJUGATE (free conjugate in the filtrate): 88%
Plasma proteins [5]; 0.2% PNS, human plasma
  providing free conjugate (in words): very effective in providing free conjugate
B-phycoerythrin; [9]
  B-phycoerythrin rel. fl. intensity in the presence of PNS or ANS: 1.0
B-phycoerythrin
  effect on fluorescence emission of B-phycoerythrin in solution (in words): does not affect the fluorescence emissions
B-phycoerythrin; 0.25% PNS or ANS
  B-phycoerythrin rel. fl. intensity in the presence of PNS or ANS: 1.0
B-phycoerythrin; 0.375% PNS or ANS
  B-phycoerythrin rel. fl. intensity in the presence of PNS or ANS: 1.0
B-phycoerythrin; 0.50% PNS or ANS
  B-phycoerythrin rel. fl. intensity in the presence of PNS or ANS: 1.0
HSA [6]
  providing free conjugate (in words): effective in providing free dye and free conjugate
HSA [6]; 0% HSA
  CONJUGATE (free conjugate in filtrate): 100
HSA [6]; 0.075% HSA
  CONJUGATE (free conjugate in filtrate): 93
HSA [6]; 0.15% HSA
  CONJUGATE (free conjugate in filtrate): 87
HSA [6]; 0.3% HSA
  CONJUGATE (free conjugate in filtrate): 87
HSA [6]; 0.6% HSA
  CONJUGATE (free conjugate in filtrate): 82
HSA [6]; 0.9% HSA
  CONJUGATE (free conjugate in filtrate): 76
HSA [6]; 1.2% HSA
  CONJUGATE (free conjugate in filtrate): 72
HSA [6]; 1.5% HSA
  CONJUGATE (free conjugate in filtrate): 69
R-phycoerythrin; [9]
  R-phycoerythrin rel. fl. intensity in the presence of PNS or ANS: 1.0
R-phycoerythrin
  effect on fluorescence emission of R-phycoerythrin in solution (in words): does not affect the fluorescence emissions
R-phycoerythrin; 0.25% PNS or ANS
  R-phycoerythrin rel. fl. intensity in the presence of PNS or ANS: 0.99
R-phycoerythrin; 0.375% PNS or ANS
  R-phycoerythrin rel. fl. intensity in the presence of PNS or ANS: 0.99
R-phycoerythrin; 0.50% PNS or ANS
  R-phycoerythrin rel. fl. intensity in the presence of PNS or ANS: 0.98
Plasma proteins [2]; 0.1% PNS
  % Phenytoin (±3) passed through filter: 97.5%
Plasma proteins [2]; 0.1-0.5% PNS
  providing free phenytoin (in words): very effective in providing free phenytoin
Plasma proteins [2]; 0.2% PNS
  % Phenytoin (±3) passed through filter: 98.6%
Plasma proteins [2]; 0.3% PNS
  % Phenytoin (±3) passed through filter: 98.7%
Plasma proteins [2]; 0.4% PNS
  % Phenytoin (±3) passed through filter: 98.6%
Plasma proteins [2]; 0.5% PNS
  % Phenytoin (±3) passed through filter: 96.7%
[7]; pH range of interest (above 3, preferably 6 to 8)
  solubility in water: soluble in water at the required concentrations
[7]; very low pH, below pH 3
  solubility in water: precipitate from solution
[1]; 0.2% PNS
  providing free sulforhodamine 101 (in words): very effective in providing free sulforhodamine 101
[1]; 0.2% PNS, 0% HSA
  % SULFORHODAMINE 101 (PASSED THROUGH FILTER): 100%
[1]; 0.2% PNS, 0.032% HSA
  % SULFORHODAMINE 101 (PASSED THROUGH FILTER): 99%
[1]; 0.2% PNS, 0.064% HSA
  % SULFORHODAMINE 101 (PASSED THROUGH FILTER): 94%
[1]; 0.2% PNS, 0.13% HSA
  % SULFORHODAMINE 101 (PASSED THROUGH FILTER): 88%
[1]; 0.2% PNS, 0.16% HSA
  % SULFORHODAMINE 101 (PASSED THROUGH FILTER): 83%
[1]; 0.2% PNS, 0.32% HSA
  % SULFORHODAMINE 101 (PASSED THROUGH FILTER): 68%
[1]; 0.2% PNS, 0.48% HSA
  % SULFORHODAMINE 101 (PASSED THROUGH FILTER): 61%
HSA [3]; 0.2% PNS
  providing free dye (in words): effective in providing free dye and free conjugate
HSA [3]; 0.2% PNS, 0% HSA
  DYE (free dye in filtrate): 100
HSA [3]; 0.2% PNS, 0.075% HSA
  DYE (free dye in filtrate): 99
HSA [3]; 0.2% PNS, 0.15% HSA
  DYE (free dye in filtrate): 97
HSA [3]; 0.2% PNS, 0.3% HSA
  DYE (free dye in filtrate): 98
HSA [3]; 0.2% PNS, 0.6% HSA
  DYE (free dye in filtrate): 93
HSA [3]; 0.2% PNS, 0.9% HSA
  DYE (free dye in filtrate): 92
HSA [3]; 0.2% PNS, 1.2% HSA
  DYE (free dye in filtrate): 89
HSA [3]; 0.2% PNS, 1.5% HSA
  DYE (free dye in filtrate): 88
Plasma proteins [8]; 0.02% PNS in human plasma
  % PHENOBARBITAL (±3%) (passed through filter): 62.7%
Plasma proteins [8]; 0.05% PNS in human plasma
  % PHENOBARBITAL (±3%) (passed through filter): 71.1%
Plasma proteins [8]; 0.2% PNS in human plasma
  % PHENOBARBITAL (±3%) (passed through filter): 93.0%
Plasma proteins [8]; 0.5% PNS in human plasma
  % PHENOBARBITAL (±3%) (passed through filter): 97.0%
Plasma proteins [8]; human, plasma
  dissociation of phenobarbital from plasma proteins (in words): effective to dissociate phenobarbital from the plasma proteins

## O=S(=O)(O)c1cccc2cccc(Nc3ccccc3)c12 [ANS, 8-anilino-1-naphthalene sulfonic acid, reference compound]
B-phycoerythrin; [9]
  B-phycoerythrin rel. fl. intensity in the presence of PNS or ANS: 0.61
B-phycoerythrin
  effect on fluorescence emission of B-phycoerythrin in solution (in words): quenches the emissions of both phycoerythrins very strongly
B-phycoerythrin; 0.25% PNS or ANS
  B-phycoerythrin rel. fl. intensity in the presence of PNS or ANS: 0.43
B-phycoerythrin; 0.375% PNS or ANS
  B-phycoerythrin rel. fl. intensity in the presence of PNS or ANS: 0.33
B-phycoerythrin; 0.50% PNS or ANS
  B-phycoerythrin rel. fl. intensity in the presence of PNS or ANS: 0.25
R-phycoerythrin; [9]
  R-phycoerythrin rel. fl. intensity in the presence of PNS or ANS: 0.72
R-phycoerythrin
  effect on fluorescence emission of R-phycoerythrin in solution (in words): quenches the emissions of both phycoerythrins very strongly
R-phycoerythrin; 0.25% PNS or ANS
  R-phycoerythrin rel. fl. intensity in the presence of PNS or ANS: 0.54
R-phycoerythrin; 0.375% PNS or ANS
  R-phycoerythrin rel. fl. intensity in the presence of PNS or ANS: 0.40
R-phycoerythrin; 0.50% PNS or ANS
  R-phycoerythrin rel. fl. intensity in the presence of PNS or ANS: 0.29

## Cn1c(=O)c2[nH]c(CCCC(=O)N3CCN(C(=O)c4ccccc4C4=c5cc6c(cc5Oc5cc7c(cc54)CCCN7CC(=O)NCCS(=O)(=O)O)=[N+](CC(=O)NCCS(=O)(=O)[O-])CCC6)CC3)nc2n(C)c1=O [theophylline-rhodamine conjugate, reference compound]
Plasma proteins [5]; CONTROL (no PNS), 0% plasma, 10 µM
  % CONJUGATE (free conjugate in the filtrate): 100%
Plasma proteins [5]; CONTROL (no PNS), 5% plasma, 10 µM
  % CONJUGATE (free conjugate in the filtrate): 93%
Plasma proteins [5]; CONTROL (no PNS), 20% plasma, 10 µM
  % CONJUGATE (free conjugate in the filtrate): 82%
Plasma proteins [5]; CONTROL (no PNS), 45% plasma, 10 µM
  % CONJUGATE (free conjugate in the filtrate): 70%
Plasma proteins [5]; CONTROL (no PNS), 65% plasma, 10 µM
  % CONJUGATE (free conjugate in the filtrate): 66%
Plasma proteins [5]; CONTROL (no PNS), 85% plasma, 10 µM
  % CONJUGATE (free conjugate in the filtrate): 57%
Plasma proteins [5]; CONTROL (no PNS), 95% plasma in HEPES buffer, 10 µM
  % CONJUGATE (free conjugate in the filtrate): 50%
